Measured values reported in paper PMC8165744, “Identification of an Alternative Glycyrrhizin Metabolite Causing Liquorice-Induced Pseudohyperaldosteronism and the Development of ELISA System to Detect the Predictive Biomarker” (Frontiers in Pharmacology, 2021).

Experiments:
human OAT1 = molecular target: T1, human OAT1 (Homo sapiens, UniProt Q4U2R8); test: uptake into HEK293 cells transfected with OAT1; format: in vitro ADME; details: HEK293, EHBR plasma, 37°C, 15 min
T1 construct: expressed in transfected cells; host or cells: HEK293 cells, pCI-neo vector
T1 sequence (Q4U2R8 1-563): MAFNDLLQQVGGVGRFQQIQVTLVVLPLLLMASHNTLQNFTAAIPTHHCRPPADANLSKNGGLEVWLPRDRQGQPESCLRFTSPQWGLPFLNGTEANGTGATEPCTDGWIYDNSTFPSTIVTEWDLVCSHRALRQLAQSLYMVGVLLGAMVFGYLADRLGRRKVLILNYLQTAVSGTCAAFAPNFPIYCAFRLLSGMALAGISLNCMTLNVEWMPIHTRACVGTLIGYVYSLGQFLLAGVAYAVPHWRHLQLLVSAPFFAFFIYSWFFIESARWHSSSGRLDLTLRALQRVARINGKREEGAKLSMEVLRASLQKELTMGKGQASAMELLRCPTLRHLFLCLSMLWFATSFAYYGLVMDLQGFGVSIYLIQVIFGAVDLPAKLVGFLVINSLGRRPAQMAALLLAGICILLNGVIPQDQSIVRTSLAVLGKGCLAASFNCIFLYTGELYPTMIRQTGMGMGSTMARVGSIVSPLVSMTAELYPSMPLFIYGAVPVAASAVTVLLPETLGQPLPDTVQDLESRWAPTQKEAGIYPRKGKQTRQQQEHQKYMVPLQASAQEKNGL
From the text: Uptake of Compound 4 by Rat Kidney Slices and Cells Expressing OAT1 and 3
For the uptake study of 4 into rat kidney slices, we used the samples obtained in our previous study ([Ishiuchi et al., 2019]). For the uptake study of 4 into the cells transiently expressing OAT1 and OAT3, we used the same protocol as in our previous study ([Makino et al., 2012]). cDNAs encoding human OAT1 and OAT3 inserted into pGH19 were generously supplied by Prof. Mitsuru Sugawara (Hokkaido University, Sapporo, Japan), and then subcloned into a pCI-neo mammalian expression vector (Promega, Madison, WI, United States). We used the same pooled plasma of male EHBRs orally treated with GA for 12 h used in our previous study ([Ishiuchi et al., 2019]).
FIGURE 2 Inhibitory effects of compound 4 on type-2 11β-hydroxysteroid dehydrogenase (11β-HSD2) using rat kidney microsome (A), and the uptake of 4 into rat kidney slices (B) or into HEK293 cells transfected with organic anion transporter (OAT) 1 (C) or OAT3 (D). […] Then, the amount of [^3H] cortisol was measured. […] Concentrations of 4 in kidney slice homogenates were measured using liquid chromatography-tandem mass spectrometry (LC-MS/MS). **p < 0.01 vs 4°C group using Student’s t-test (C) Male EHBRs were orally treated with GA (200 mg/kg) and their plasma samples were collected […] after treatment. […] Then, concentrations of 4 in cells were measured using LC-MS/MS. […]

anti-3MGA-mAb = test: competitive ELISA using anti-3MGA-mAb; format: binding; details: competitive ELISA in aqueous solution, 3MGA calibrated to 100%
Protocol: ELISA System Using anti-3MGA-mAb
An ELISA system to measure the cross-reactivity of compounds 3 and 4 by using 3MGA-HSA-conjugate and anti-3MGA-mAb was used according to the protocol in our previous study ([Ishiuchi et al., 2019]). To measure the concentration of 3 in human serum samples using the system ELISA, 3 was dissolved in normal human serum (Sigma) to prepare standard solutions (16 nM–2.0 µM) and the samples or standard solutions (each 10 µl) and ethanol (40 µl) were well mixed and centrifuged (1.2 × 10^4 × g for 7 min). The supernatant was dried up under nitrogen flow at 40°C overnight, and the residue was dissolved in Can Get Signal® Solution 1 (Toyobo Co., Ltd: Osaka, Japan) (50 µl). […] When the observed values were more than 400 nM, the deproteinized serum samples were further diluted with Can Get Signal® Solution 1 for two or four times and analyzed again to observe values from 15.6 to 400 nM.
FIGURE 4 Development of enzyme-linked immunosorbent assay (ELISA) system to measure concentrations of 3 in human serum samples using anti-18β-glycyrrhetyl-3-O-glucuronide (3MGA)-monoclonal antibody (mAb). […] Standard lines between absorbance and concentrations of compound 3 are shown (D) Accuracy of ELISA system in measuring concentrations of 3 in human serum samples using anti-3MGA-mAb. Human serum samples were deproteinized, and concentration of 3 was measured using ELISA system. […]

uptake into cells expressing OAT1 vs mock cells (human OAT1): significantly higher
Compound: CC1(C)[C@@H](OS(=O)(=O)O)CC[C@]2(C)[C@H]3C(=O)C=C4[C@@H]5C[C@@](C)(C(=O)O[C@@H]6O[C@H](C(=O)O)[C@@H](O)[C@H](O)[C@H]6O)CC[C@]5(C)CC[C@@]4(C)[C@]3(C)CC[C@@H]12 [Compound 4, 18β-glycyrrhetyl-3-O-sulfate-30-O-glucuronide]
cross-reactivity to anti-3MGA-mAb (anti-3MGA-mAb): 40%
